Reference: patent US9278978B2, “6-Alkynyl Pyridine” (Boehringer Ingelheim International GmbH, priority 2013, dated 2016)

The molecules below were run against cIAP1 BIR3 (Homo sapiens (Human), UniProt Q13490) (assay: cIAP1 BIR3 binding assay (DELFIA), BIR3 domain-SMAC peptide interaction). Conditions: not given.
Procedure: XIAP BIR3 and cIAP1 BIR3 Binding Assays (DELFIA)
Peptide […]-Lys(Biotin), representing the N-terminus of mature human SMAC(SMAC peptide), was used as interaction partner in the protein-peptide interaction assay.
BIR3 domains (10 nM) were incubated with SMAC peptide (10 nM) in assay buffer (50 mM Tris, 120 mM NaCl, 0.1% BSA, 1 mM DTT, 0.05% TritonX100) for one hour at room temperature in the presence of inhibitory compounds. The assay mixture was transferred to a strepatvidin coated plate and incubated for one hour at room temperature to allow binding of the biotinylated peptide and associated BIR3 domains to the plate. After several washing steps Eu labeled anti-GST antibody (e.g. Perkin Elmer DELFIA Eu-N1-antiGST AD0250) was added to detect BIR3 domain-SMAC peptide interactions according to Perkin Elmer's instructions. […] Time resolved Europium fluorescence was measured in a Wallac Victor using Standard assay settings.
DELFIA assay results were plotted against compound concentrations and Software GraphPad Prizm was used to calculate half maximal inhibitory concentrations (IC50 values).

| IC50 | SMILES |
| --- | --- |
| 1 nM | CNC(C)C(=O)Nc1cc(-c2ncnc3ncn(C)c23)cc(C#Cc2ccc3c(ccc(=O)n3C)c2)n1 (centres unmarked) [Example 8, N-{6-[2-(1-methyl-2-oxo-1,2-dihydroquinolin-6-yl)ethynyl]-4-(7-methyl-7H-purin-6-yl)pyridin-2-yl}-2-(methylamino)propanamide] |
| 2 nM | CNC(C)C(=O)Nc1cc(-c2ncnc3ncn(C)c23)cc(C#Cc2ccc(-n3cnc(C)c3)cc2)n1 (centres unmarked) [Example 9, N-(6-{2-[4-(4-methyl-1H-imidazol-1-yl)phenyl]ethynyl}-4-(7-methyl-7H-purin-6-yl)pyridin-2-yl)-2-(methylamino)propanamide] |
| 2 nM | CNC(C)C(=O)Nc1cc(-c2ncnc3ncn(C)c23)cc(C#Cc2ccccc2)n1 (centres unmarked) [Example 7, N-[4-(7-methyl-7H-purin-6-yl)-6-(2-phenylethynyl)pyridin-2-yl]-2-(methylamino)propanamide] |
| 1 nM | CNC(C)C(=O)Nc1cc(-c2ncnc3ncn(C)c23)cc(C#Cc2ccc3c(C)nccc3c2)n1 (centres unmarked) [Example 6, N-[4-(7-methyl-7H-purin-6-yl)-6-[2-(1-methylisoquinolin-6-yl)ethynyl]pyridin-2-yl]-2-(methylamino)propanamide] |

Same assay, conditions: BIR3 domain 10 nM, SMAC peptide 10 nM; (S)-isomer (examples 1-34, 38-43) or racemate (examples 35-37); read-out: cIAP1 BIR-3 IC50

| SMILES | IC50 |
| --- | --- |
| CNC(C)C(=O)Nc1cc(-c2cncc(F)c2)cc(C#Cc2ccccc2)n1 (centres unmarked) [Example 29, N-[4-(5-fluoropyridin-3-yl)-6-(2-phenylethynyl)pyridin-2-yl]-2-(methylamino)propanamide] | 127 nM |
| CNC(C)C(=O)Nc1cc(-c2cccc3ncccc23)c(OC)c(C#Cc2ccccc2)n1 (centres unmarked) [Example 27, N-[5-methoxy-6-(2-phenylethynyl)-4-(quinolin-5-yl)pyridin-2-yl]-2-(methyl-amino)propanamide] | 136 nM |
| CCNC(CC)C(=O)Nc1cc(-c2ncnc3c(C)nn(C)c23)cc(C#Cc2ccc3c(C)nccc3c2)n1 (racemic) [Example 37, N-(4-{1,3-dimethyl-1H-pyrazolo[4,3-d]pyrimidin-7-yl}-6-[2-(1-methylisoquinolin-6-yl)ethynyl]pyridin-2-yl)-2-(ethylamino)butanamide] | 6 nM |
| CNC(C)C(=O)Nc1cc(-c2nc(C)nc3nn(C)c(C)c23)cc(C#Cc2ccc3c(ccc(=O)n3C)c2)n1 (centres unmarked) [Example 19, N-{6-[2-(1-methyl-2-oxo-1,2-dihydroquinolin-6-yl)ethynyl]-4-{trimethyl-2H-pyrazolo[3,4-d]pyrimidin-4-yl}pyridin-2-yl}-2-(methylamino)propanamide] | 2 nM |
| CNC(C)C(=O)Nc1cc(-c2ccncc2)cc(C#Cc2ccccc2)n1 (centres unmarked) [Example 28, 2-(methylamino)-N-[6-(2-phenylethynyl)-4-(pyridin-4-yl)pyridin-2-yl]propanamide] | 282 nM |
| CNC(C)C(=O)Nc1cc(-c2ccncc2)c(-c2cncnc2)c(C#Cc2ccccc2)n1 (racemic) [Example 35, 2-(methylamino)-N-[6-(2-phenylethynyl)-4-(pyridin-4-yl)-5-(pyrimidin-5-yl)pyridin-2-yl]propanamide] | 250 nM |
| CNC(C)C(=O)Nc1cc(-c2cccnc2)c(-c2cncnc2)c(C#Cc2ccccc2)n1 (racemic) [Example 36, 2-(methylamino)-N-[6-(2-phenylethynyl)-4-(pyridin-3-yl)-5-(pyrimidin-5-yl)-pyridin-2-yl]propanamide] | 172 nM |
| CNC(C)C(=O)Nc1cc(-c2cccc3cnn(C)c23)c(Cl)c(C#Cc2ccc3c(C)nccc3c2)n1 (centres unmarked) [Example 24, N-[5-chloro-4-(1-methyl-1H-indazol-7-yl)-6-[2-(1-methylisoquinolin-6-yl)ethynyl]pyridin-2-yl]-2-(methylamino)propanamide] | 12 nM |
| CNC(C)C(=O)Nc1cc(-c2ncnc3oc(C)c(C)c23)cc(C#Cc2ccccc2)n1 (centres unmarked) [Example 10, N-(4-{5,6-dimethylfuro[2,3-d]pyrimidin-4-yl}-6-(2-phenylethynyl)pyridin-2-yl)-2-(methylamino)propanamide] | 2 nM |
| CNC(C)C(=O)Nc1cc(-c2c(C)nc(C)c3c(=O)n(C)n(C)c23)cc(C#Cc2ccc3c(C)nccc3c2)n1 (centres unmarked) [Example 14, 2-(methylamino)-N-{6-[2-(1-methylisoquinolin-6-yl)ethynyl]-4-{1,2,4,6-tetramethyl-3-oxo-1H,2H,3H-pyrazolo[4,3-c]pyridin-7-yl}pyridin-2-yl}propanamide] | 1 nM |
| CNC(C)C(=O)Nc1cc(-c2nc(C)nc3nn(C)c(C)c23)cc(C#Cc2ccc3c(C)nccc3c2)n1 (centres unmarked) [Example 18, 2-(methylamino)-N-{6-[2-(1-methylisoquinolin-6-yl)ethynyl]-4-{trimethyl-2H-pyrazolo[3,4-d]pyrimidin-4-yl}pyridin-2-yl}-propanamide] | 1 nM |
| CNC(C)C(=O)Nc1cc(-c2cccc3cnn(C)c23)c(OC)c(C#Cc2ccccc2)n1 (centres unmarked) [Example 26, N-[5-methoxy-4-(1-methyl-1H-indazol-7-yl)-6-(2-phenylethynyl)pyridin-2-yl]-2-(methylamino)propanamide] | 12 nM |
| CNC(C)C(=O)Nc1cc(-c2cccc3nc(C)c(C)n23)cc(C#Cc2ccc3c(C)nccc3c2)n1 (centres unmarked) [Example 11, N-(4-{2,3-dimethylimidazo[1,2-a]pyridin-5-yl}-6-[2-(1-methylisoquinolin-6-yl)ethynyl]pyridin-2-yl)-2-(methylamino)propanamide] | 1 nM |
| CNC(C)C(=O)Nc1cc(-c2cccc3cnn(C)c23)cc(C#Cc2ccc3c(c2)CC(=O)N3C)n1 (centres unmarked) [Example 12, N-[4-(1-methyl-1H-indazol-7-yl)-6-[2-(1-methyl-2-oxo-2,3-dihydro-1H-indol-5-yl)ethynyl]pyridin-2-yl]-2-(methylamino)propanamide] | 11 nM |
| CNC(C)C(=O)Nc1cc(-c2ncnc3c(C)nn(C)c23)cc(C#Cc2cc(F)c3ncccc3c2)n1 (centres unmarked) [Example 42, N-(4-{1,3-dimethyl-1H-pyrazolo[4,3-d]pyrimidin-7-yl}-6-[2-(8-fluoroquinolin-6-yl)ethynyl]pyridin-2-yl)-2-(methylamino)propanamide] | 1 nM |
| CNC(C)C(=O)Nc1cc(-c2ncnc3c(C)nn(C)c23)cc(C#Cc2ccc3nc(C)ccc3c2)n1 (centres unmarked) [Example 38, N-(4-{1,3-dimethyl-1H-pyrazolo[4,3-d]pyrimidin-7-yl}-6-[2-(2-methylquinolin-6-yl)ethynyl]pyridin-2-yl)-2-(methylamino)propanamide] | 1 nM |

Next, values leading:

| IC50 | SMILES |
| --- | --- |
| 1 nM | CNC(C)C(=O)Nc1cc(-c2ncnc3c(C)nn(C)c23)cc(C#Cc2ccc(-n3cnc(C)c3)cc2)n1 (centres unmarked) [Example 41, N-(4-{1,3-dimethyl-1H-pyrazolo[4,3-d]pyrimidin-7-yl}-6-{2-[4-(4-methyl-1H-imidazol-1-yl)phenyl]-ethynyl}pyridin-2-yl)-2-(methylamino)propanamide] |
| 1 nM | CNC(C)C(=O)Nc1cc(-c2ncnc3c(C)nn(C)c23)cc(C#Cc2cc(F)cc(F)c2)n1 (centres unmarked) [Example 40, N-{6-[2-(3,5-difluorophenyl)ethynyl]-4-{1,3-dimethyl-1H-pyrazolo[4,3-d]pyrimidin-7-yl}pyridin-2-yl}-2-(methyl-amino)propanamide] |
| 1 nM | CNC(C)C(=O)Nc1cc(-c2nc(C)nc3nn(C)c(C)c23)cc(C#Cc2cccs2)n1 (centres unmarked) [Example 22, 2-(methylamino)-N-{6-[2-(thiophen-2-yl)ethynyl]-4-{trimethyl-2H-pyrazolo[3,4-d]pyrimidin-4-yl}pyridin-2-yl}propanamide] |
| 1 nM | CNC(C)C(=O)Nc1cc(-c2ncnc3c(C)nn(C)c23)cc(C#Cc2cnc3c(cnn3C)c2)n1 (centres unmarked) [Example 43, N-(4-{1,3-dimethyl-1H-pyrazolo[4,3-d]pyrimidin-7-yl}-6-(2-{1-methyl-1H-pyrazolo[3,4-b]pyridin-5-yl}ethynyl)pyridin-2-yl)-2-(methylamino)propanamide] |
| 1 nM | CNC(C)C(=O)Nc1cc(-c2nc(C)nc3nn(C)c(C)c23)cc(C#Cc2cnc(-n3cnc(C)c3)nc2)n1 (centres unmarked) [Example 21, N-(6-{2-[2-(4-methyl-1H-imidazol-1-yl)pyrimidin-5-yl]ethynyl}-4-{trimethyl-2H-pyrazolo[3,4-d]pyrimidin-4-yl}pyridin-2-yl)-2-(methyl-amino)propanamide] |
| 1 nM | CNC(C)C(=O)Nc1cc(-c2nc(C)nc3c(C)nn(C)c23)cc(C#Cc2ccc3c(ccc(=O)n3C)c2)n1 (centres unmarked) [Example 15, N-{6-[2-(1-methyl-2-oxo-1,2-dihydroquinolin-6-yl)ethynyl]-4-{trimethyl-1H-pyrazolo[4,3-d]pyrimidin-7-yl}pyridin-2-yl}-2-(methylamino)propanamide] |
| 1 nM | CNC(C)C(=O)Nc1cc(-c2cnc3cccc(C)n23)cc(C#Cc2ccc3c(C)nccc3c2)n1 (centres unmarked) [Example 13, 2-(methylamino)-N-(4-{5-methylimidazo[1,2-a]pyridin-3-yl}-6-[2-(1-methylisoquinolin-6-yl)ethynyl]pyridin-2-yl)propanamide] |
| 1 nM | CNC(C)C(=O)Nc1cc(-c2ncnc3c(C)nn(C)c23)cc(C#Cc2ccc3c(C)nccc3c2)n1 (centres unmarked) [Example 2, N-(4-{1,3-dimethyl-1H-pyrazolo[4,3-d]pyrimidin-7-yl}-6-[2-(1-methylisoquinolin-6-yl)ethynyl]pyridin-2-yl)-2-(methylamino)propanamide] |
| 1 nM | CNC(C)C(=O)Nc1cc(-c2nc(C)nc3nn(C)c(C)c23)cc(C#Cc2ccc3c(cnn3C)c2)n1 (centres unmarked) [Example 20, N-{6-[2-(1-methyl-1H-indazol-5-yl)ethynyl]-4-{trimethyl-2H-pyrazolo[3,4-d]pyrimidin-4-yl}pyridin-2-yl}-2-(methylamino)-propanamide] |
